Our source for the inhibition values is patent US8492582B2, “N-acyl anthranilic acid derivative or salt thereof” (Toyama Chemical Co., Ltd., priority 2009, dated 2013).

Counter-ions that a name gives are not always drawn.

The subject of the first experiment is type I collagen α1 chain mRNA in WI-38 cells. Briefly: Type I collagen α1 chain mRNA expression inhibition test. The format is cell-based. As to conditions: Homo sapiens, WI-38, 24 h, read-out: Inhibition rate (%) at 10 μmol/L. As to the method: Human embryonic lung fibroblast cell line WI-38 cells were suspended in a Dulbecco's modified Eagle's medium containing 10% fetal calf serum, and 7.5×10^4 cells were inoculated on a 12-well plate and cultured for 3 days, or 1.5×10^5 cells were inoculated and cultured for 2 days. After the growth of the cells to a subconfluent state, the culture medium was changed to a Dulbecco's modified Eagle's medium containing 0.4% fetal calf serum and 50 μg/mL ascorbic acid, and the cells were further cultured for 24 hours. Then, a test compound was added thereto, and, one hour later, TGF-β1 was added at a final concentration of 1 ng/mL. Twenty-four hours after the addition, the total RNA was extracted from the cells using an RNA extraction kit (SV Total RNA Isolation System, Promega), and cDNA was synthesized using a reverse transcriptase (ReverTra Ace, TOYOBO). The expression level of the type I collagen al chain mRNA was analyzed with a real-time PCR instrument (ABI PRISM 7700 Sequence Detection System, Applied Biosystems) by a real-time PCR method using a premix reagent of real-time PCR (SYBR Premix Ex Taq or SYBR Premix Ex Taq II (Perfect Real Time), TaKaRa). A PCR reaction was conducted with diluted cDNA as a template, using primers specific for a type I collagen α1 chain gene or a GAPDH gene as an internal standard, and the reaction product was measured. The PCR reaction was conducted by incubation at 95° C. for 10 seconds and 45 cycles of denaturation at 95° C. for 5 seconds and annealing/extension at 60° C. for 30 seconds. The expression level of the type I collagen α1 chain mRNA was corrected with GAPDH and was expressed as a relative value when the expression level obtained in the absence of the test compound was defined as 100%.
For `O=C(Nc1cc(-c2ccccc2OC(F)F)ccc1C(=O)O)c1cncc(-c2ccccc2)c1` [9b], the inhibition at 10 µM came to 84%.
Consider `O=C(Nc1cc(-c2ccccc2F)ccc1C(=O)O)c1cncc(-c2ccccc2)c1` [44b, sodium 4-(2-fluorophenyl)-2-(5-phenylpyridine-3-carboxamido)-benzoate], for which the inhibition at 10 µM came to 93%.
Same read-out and setting: for `O=C(Nc1cc(-c2ccsc2)ccc1C(=O)O)c1cncc(-c2ccccc2)c1` [46b, sodium 2-(5-phenylpyridine-3-carboxamido)-4-(thiophen-3-yl)benzoate] the value was 69%; for `O=C(Nc1cc(N2CCCCC2)ccc1C(=O)O)c1cncc(-c2ccccc2)c1` [63b, Sodium 2-(5-phenylpyridine-3-carboxamido)-4-(piperidin-1-yl)benzoate], 65%.

Still in this experiment, the particulars now being: Homo sapiens; 10 μmol/L test compound; WI-38 cells, TGF-β1 1 ng/mL, 24 hours; Table 4a; read-out: Inhibition rate (%) at 10 μmol/L.
Regarding `O=C(Nc1cc(-c2ccc[nH]2)ccc1C(=O)O)c1cc(N2CCCCC2)ccc1O` [157a, 2-(2-hydroxy-5-(piperidin-1-yl)benzamido)-4-(1H-pyrrol-2-yl)benzoic acid], the inhibition at 10 µM worked out at 84%.
As to `CC1CCCN(c2ccc(O)c(C(=O)Nc3cc(-c4ccccc4)ccc3C(=O)O)c2)C1` (centres unmarked) [166a, 2-(2-Hydroxy-5-(3-methylpiperidin-1-yl)benzamido)-4-phenylbenzoic acid hydrochloride], the inhibition at 10 µM came to 95%.
Still for that read-out and setting: for `O=C(Nc1cc(-c2ccccc2)ccc1C(=O)O)c1cc(OCCN2CCN(CCCO)CC2)ccc1O` [174a, 2-(2-hydroxy-5-(2-(4-(3-hydroxypropyl)piperazin-1-yl)ethoxy)benzamido)-4-phenylbenzoic acid] the value was 86%; for `O=C(Nc1cc(-c2ccccc2)ccc1C(=O)O)c1cc(OCCN2CCC2)ccc1O` [177a, 2-(5-(2-(azetidin-1-yl)ethoxy)-2-hydroxybenzamido)-4-phenylbenzoic acid hydrochloride], 82%.
For `O=C(Nc1cc(-c2ccccc2)ccc1C(=O)O)c1cc(OCCN2CCC(CCO)CC2)ccc1O` [180a, 2-(2-Hydroxy-5-(2-(4-(hydroxyethyl)piperidin-1-yl)ethoxy)benzamido)-4-phenylbenzoic acid hydrochloride], the inhibition at 10 µM stood at 85%.
As for `O=C(Nc1cc(-c2ccccc2)ccc1C(=O)O)c1cc(OCCN2CCCCCC2)ccc1O` [181a, 2-(5-(2-(Homopiperidin-1-yl)ethoxy)-2-hydroxybenzamido)-4-phenylbenzoic acid hydrochloride], the inhibition at 10 µM was 74%.
On the same count and under the same terms, in the case of `CCN(CCO)CCOc1ccc(O)c(C(=O)Nc2cc(-c3ccccc3)ccc2C(=O)O)c1` [182a, 2-(5-(2-(Ethyl(2-hydroxyethyl)amino)ethoxy)-2-hydroxybenzamido)-4-phenylbenzoic acid hydrochloride] it was 82%; in that of `CCCN1CCN(CCOc2ccc(O)c(C(=O)Nc3cc(-c4ccccc4)ccc3C(=O)O)c2)CC1` [183a, 2-(2-hydroxy-5-(2-(4-propylpiperazin-1-yl)ethoxy)benzamido)-4-phenylbenzoic acid dimethanesulfonate], 81%; in that of `CN1CCC(COc2ccc(O)c(C(=O)Nc3cc(-c4ccccc4)ccc3C(=O)O)c2)CC1` [189a, 2-(2-hydroxy-5-(1-methylpiperidin-4-ylmethoxy)benzamido)-4-phenylbenzoic acid hydrochloride], 95%.
For `CN1CCC(CCOc2ccc(O)c(C(=O)Nc3cc(-c4ccccc4)ccc3C(=O)O)c2)CC1` [190a, 2-(2-Hydroxy-5-(2-(1-methylpiperidin-4-yl)ethoxy)benzamido)-4-phenylbenzoic acid hydrochloride], the inhibition at 10 µM is 86%.
Same read-out and setting: in the case of `CN1CCN(c2ccc(O)c(C(=O)Nc3cc(-c4ccccc4)ccc3C(=O)O)c2)CC1=O` [193a, 2-(2-Hydroxy-5-(4-methyl-3-oxopiperazin-1-yl)benzamido)-4-phenylbenzoic acid] it was 85%; in that of `O=C(Nc1cc(-c2cccc(F)c2)ccc1C(=O)O)c1cc(N2CCOCC2)ccc1O` [198a, 4-(3-Fluorophenyl)-2-(2-hydroxy-5-(morpholin-4-yl)benzamido)benzoic acid], 81%.
Still for that read-out and setting: in the case of `Cc1cccc(-c2ccc(C(=O)O)c(NC(=O)c3cc(N4CCOCC4)ccc3O)c2)c1` [201a, 2-(2-Hydroxy-5-(morpholin-4-yl)benzamido)-4-(3-methylphenyl)benzoic acid] it was 94%.
Turning to `COc1cccc(-c2ccc(C(=O)O)c(NC(=O)c3cc(N4CCOCC4)ccc3O)c2)c1` [204a, 2-(2-Hydroxy-5-(morpholin-4-yl)benzamido)-4-(3-methoxyphenyl)benzoic acid], the inhibition at 10 µM was 89%.

Still in this experiment, the particulars now being: Homo sapiens; 10 μmol/L test compound; WI-38 cells, TGF-β1 1 ng/mL, 24 hours; Table 4b; read-out: Inhibition rate (%) at 10 μmol/L.
Turning to `O=C(Nc1cc(-c2ccccc2)ccc1C(=O)O)c1ccc(-c2ccccc2)nc1` [3b, 4-phenyl-2-(6-phenylpyridine-3-carboxamido)benzoic acid], the inhibition at 10 µM was found to be 83%.
The same measure, in the same setting: for `O=C(Nc1cc(-c2ccccc2)ccc1C(=O)O)c1ccnc(-c2ccccc2)c1` [4b, 4-Phenyl-2-(2-phenylpyridine-4-carboxamido)benzoic acid] the value was 93%; for `O=C(Nc1cc(-c2ccccc2)ccc1C(=O)O)c1cccc(-c2ccccc2)n1` [5b, 4-Phenyl-2-(6-phenylpyridine-2-carboxamido)benzoic acid], 72%.
For `CCNc1cccc(-c2ccc(C(=O)O)c(NC(=O)c3cncc(-c4ccccc4)c3)c2)c1` [11b, 4-(3-(ethylamino)phenyl)-2-(5-phenylpyridine-3-carboxamido)benzoic acid], the inhibition at 10 µM worked out at 80%.
For the compound `CNc1ccccc1-c1ccc(C(=O)O)c(NC(=O)c2cncc(-c3ccccc3)c2)c1` [12b, 4-(2-(Methylamino)phenyl)-2-(5-phenylpyridine-3-carboxamido)benzoic acid], the inhibition at 10 µM stood at 87%.
In the case of `CNc1cccc(-c2ccc(C(=O)O)c(NC(=O)c3cncc(-c4ccccc4)c3)c2)c1` [13b, 4-(3-(Methylamino)phenyl)-2-(5-phenylpyridine-3-carboxamido)benzoic acid], the inhibition at 10 µM was 92%.
The same measure, in the same setting: in the case of `Nc1ccccc1-c1ccc(C(=O)O)c(NC(=O)c2cncc(-c3ccccc3)c2)c1` [27b, 4-(2-Aminophenyl)-2-(5-phenylpyridine-3-carboxamido)benzoic acid] it was 72%; in that of `O=C(Nc1cc(-c2ccccc2)ccc1-c1nnn[nH]1)c1cncc(-c2ccccc2)c1` [29b, 5-phenyl-N-(5-phenyl-2-(1H-tetrazol-5-yl)phenyl)pyridine-3-carboxamide], 86%.
The same measure, in the same setting: in the case of `Cc1ccccc1-c1ccc(C(=O)O)c(NC(=O)c2cncc(-c3ccccc3)c2)c1` [32b, Sodium 4-(2-methylphenyl)-2-(5-phenylpyridine-3-carboxamido)benzoate] it was 81%; in that of `O=C(Nc1cc(-c2ccccc2C(F)(F)F)ccc1C(=O)O)c1cncc(-c2ccccc2)c1` [33b, Sodium 2-(5-phenylpyridine-3-carboxamido)-4-(2-(trifluoromethyl)phenyl)benzoate], 78%.
For the compound `COc1cccc(-c2ccc(C(=O)O)c(NC(=O)c3cncc(-c4ccccc4)c3)c2)c1` [35b, Sodium 4-(3-methoxyphenyl)-2-(5-phenylpyridine-3-carboxamido)benzoate], the inhibition at 10 µM came out at 96%.
On the same count and under the same terms, for `CCOc1ccccc1-c1ccc(C(=O)O)c(NC(=O)c2cncc(-c3ccccc3)c2)c1` [38b, Sodium 4-(2-ethoxyphenyl)-2-(5-phenylpyridine-3-carboxamido)benzoate] the value was 94%; for `O=C(Nc1cc(-c2ccccc2OC(F)(F)F)ccc1C(=O)O)c1cncc(-c2ccccc2)c1` [40b, Sodium 2-(5-phenylpyridine-3-carboxamido)-4-(2-(trifluoromethoxy)phenyl)benzoate], 96%; for `Cn1cccc1-c1ccc(C(=O)O)c(NC(=O)c2cncc(-c3ccccc3)c2)c1` [45b, 4-(1-methyl-1H-pyrrol-2-yl)-2-(5-phenylpyridine-3-carboxamido)benzoic acid], 90%.
Same read-out and setting: in the case of `CN(C)c1cccc(-c2ccc(C(=O)O)c(NC(=O)c3cncc(-c4ccccc4)c3)c2)c1` [51b, 4-(3-(Dimethylamino)phenyl)-2-(5-phenylpyridine-3-carboxamido)benzoic acid] it was 92%; in that of `O=C(Nc1cc(-c2ccc[nH]2)ccc1C(=O)O)c1cncc(-c2ccccc2)c1` [58b, 2-(5-phenylpyridine-3-carboxamido)-4-(1H-pyrrol-2-yl)benzoic acid], 78%; in that of `O=C(Nc1cc(Nc2ccccc2)ccc1C(=O)O)c1cncc(-c2ccccc2)c1` [61b, 4-anilino-2-(5-phenylpyridine-3-carboxamido)benzoic acid], 86%.
